Data taken from ChEMBL document CHEMBL5385929, “Tabersonine Enhances Olaparib Sensitivity through FHL1-Mediated Epithelial-Mesenchymal Transition in an Ovarian Tumor” (J Nat Prod, 2024).
The source made the active and inactive calls. No cut-off for these calls is given here.

Tests used:
[1] = system: SK-OV-3; assay: Synergistic antiproliferative activity against human SK-OV-3 cells assessed as combination index for reduction of cell viability in presence of olaparib by CCK8 assay; format: functional
[2] = system: A2780; assay: Potentiation of olaparib-induced antitumor activity against human A2780 cells xenografted in BALB/c mouse assessed as decrease in tumor volume at 15 mg/kg, ip co-administered with olaparib for 2 weeks; format: functional, organism-based
[3] = system: A2780; assay: Potentiation of olaparib-induced antitumor activity against human A2780 cells xenografted in BALB/c mouse assessed as decrease in tumor weight at 15 mg/kg, ip co-administered with olaparib for 2 weeks; format: functional, organism-based
[4] = system: SK-OV-3; assay: Downregulation of EMT signalling in human SK-OV-3 cells assessed as downregulation of vimentin protein expression at 10 uM by western blot analysis; format: functional, cell-based
[5] = system: SK-OV-3; assay: Potentiation of olaparib sensitivity in human SK-OV-3 cells assessed as inhibition of cell invasion at 10 uM measured after 48 hrs in presence of olaparib by Transwell assay; format: functional, cell-based
[6] = system: SK-OV-3; assay: Inhibition of cell migration in human SK-OV-3 cells at 10 uM measured after 24 to 48 hrs by wound healing assay; format: functional, cell-based; settings: time 24-48 hrs
[7] = system: A2780; assay: Potentiation of olaparib sensitivity in human A2780 cells assessed as inhibition of cell migration at 10 uM measured after 24 to 48 hrs in presence of olaparib by wound healing assay; format: functional, cell-based; settings: time 24-48 hrs
[8] = system: SK-OV-3; assay: Upregulation of FHL1 protein expression in human SK-OV-3 cells by western blot analysis; format: functional, cell-based; settings: dose 5-20 µM
[9] = system: A2780; assay: Effect on FHL1 mRNA expression in human A2780 cells at 5 to 20 uM by real-time PCR analysis; format: functional, cell-based; settings: dose 5-20 µM
[10] = system: A2780; assay: Increase in FHL1 protein stability in human A2780 cells at 10 uM measured after 6 to 24 hrs in presence of cycloheximide by CHX chase assay based western blot analysis; format: functional, cell-based; settings: time 6-24 hrs
[11] = system: A2780; assay: Downregulation of EMT signalling in human A2780 cells transfected with shFHL1-1 RNA assessed as E-cadherin protein expression at 10 uM by western blot analysis; format: functional, cell-based
[12] = system: SK-OV-3; assay: Downregulation of EMT signalling in human SK-OV-3 cells transfected with shFHL1-1 RNA assessed as E-cadherin protein expression at 10 uM by western blot analysis; format: functional, cell-based
[13] = system: SK-OV-3; assay: Downregulation of EMT signalling in human SK-OV-3 cells transfected with shFHL1-1 RNA assessed as vimentin protein expression at 10 uM by western blot analysis; format: functional, cell-based
[14] = system: SK-OV-3; assay: Downregulation of EMT signalling in human SK-OV-3 cells transfected with shFHL1-2 RNA assessed as vimentin protein expression at 10 uM by western blot analysis; format: functional, cell-based
[15] = system: SK-OV-3; assay: Inhibition of cell invasion in human SK-OV-3 cells transfected with shFHL1-1 RNA at 10 uM measured after 48 hrs by Transwell assay; format: functional, cell-based
[16] = system: SK-OV-3; assay: Inhibition of cell invasion in human SK-OV-3 cells transfected with shFHL1-2 RNA at 10 uM measured after 48 hrs by Transwell assay; format: functional, cell-based
[17] = system: SK-OV-3; assay: Inhibition of cell migration in human SK-OV-3 cells transfected with shFHL1-2 RNA at 10 uM measured after 24 to 48 hrs by wound healing assay; format: functional, cell-based; settings: time 24-48 hrs
[18] = system: A2780; assay: Potentiation of olaparib sensitivity in human A2780 cells transfected with shFLH1-1 RNA assessed as downregulation of EMT signaling by measuring N-cadherin protein expression at 10 uM in presence of olaparib by western blot analysis; format: functional, cell-based
[19] = system: A2780; assay: Potentiation of olaparib sensitivity in human A2780 cells transfected with shFLH1-2 RNA assessed as downregulation of EMT signaling by measuring E-cadherin protein expression at 10 uM in presence of olaparib by western blot analysis; format: functional, cell-based
[20] = system: A2780; assay: Potentiation of olaparib sensitivity in human A2780 cells transfected with shFLH1-2 RNA assessed as downregulation of EMT signaling by measuring N-cadherin protein expression at 10 uM in presence of olaparib by western blot analysis; format: functional, cell-based
[21] = system: SK-OV-3; assay: Potentiation of olaparib sensitivity in human SK-OV-3 cells transfected with shFLH1-2 RNA assessed as downregulation of EMT signaling by measuring vimentin protein expression at 10 uM in presence of olaparib by western blot analysis; format: functional, cell-based
[22] = system: SK-OV-3; assay: Potentiation of olaparib sensitivity in human SK-OV-3 cells transfected with shFHL1-1 RNA assessed as inhibition of cell invasion at 10 uM measured after 48 hrs in presence of olaparib by Transwell assay; format: functional, cell-based
[23] = system: SK-OV-3; assay: Potentiation of olaparib sensitivity in human SK-OV-3 cells transfected with shFHL1-1 RNA assessed as inhibition of cell migration at 10 uM measured after 24 to 48 hrs in presence of olaparib by wound healing assay; format: functional, cell-based; settings: time 24-48 hrs
[24] = system: SK-OV-3; assay: Potentiation of olaparib sensitivity in human SK-OV-3 cells transfected with shFHL1-2 RNA assessed as inhibition of cell migration at 10 uM measured after 24 to 48 hrs in presence of olaparib by wound healing assay; format: functional, cell-based; settings: time 24-48 hrs
[25] = system: A2780; assay: Potentiation of olaparib-induced antitumor activity against shNC RNA-transfected human A2780 cells xenografted in BALB/c mouse assessed as decrease in tumor volume at 15 mg/kg, ip co-administered with olaparib for 2 weeks; format: functional, organism-based
[26] = system: A2780; assay: Potentiation of olaparib-induced antitumor activity against shNC RNA-transfected human A2780 cells xenografted in BALB/c mouse assessed as decrease in tumor weight at 15 mg/kg, ip co-administered with olaparib for 2 weeks; format: functional, organism-based
[27] = system: Mus musculus; assay: Potentiation of olaparib sensitivity in BALB/c mouse xenografted with shNC RNA-transfected human A2780 cells assessed as upregulation of E-cadherin protein expression in tumor at 15 mg/kg, ip co-administered with olaparib for 2 weeks by western blot analysis; format: functional, organism-based
[28] = system: Mus musculus; assay: Potentiation of olaparib sensitivity in BALB/c mouse xenografted with shNC RNA-transfected human A2780 cells assessed as upregulation of FHL1 protein expression in tumor at 15 mg/kg, ip co-administered with olaparib for 2 weeks by western blot analysis; format: functional, organism-based
[29] = system: Mus musculus; assay: Potentiation of olaparib sensitivity in BALB/c mouse xenografted with shFHL1-1 RNA-transfected human A2780 cells assessed as upregulation of E-cadherin protein expression in tumor at 15 mg/kg, ip co-administered with olaparib for 2 weeks by western blot analysis; format: functional, organism-based
[30] = system: Mus musculus; assay: Potentiation of olaparib sensitivity in BALB/c mouse xenografted with shNC RNA-transfected human A2780 cells assessed as increase in FHL1 protein expression in tumor at 15 mg/kg, ip co-administered with olaparib for 2 weeks by immunohistochemistry; format: functional, organism-based
[31] = system: A2780; assay: (§1) Potentiation of olaparib-induced antitumor activity against shNC RNA-transfected human A2780 cells xenografted in BALB/c mouse assessed as decrease in lung metastatic nodules at 15 mg/kg, ip co-administered with olaparib every other day from day 6 of tumor cell inoculation and measured on day 30 post-tumor cell inoculation by H and E staining based bright field microscopic analysis; format: functional, organism-based; settings: time 24.0 day
[32] = system: A2780; assay: as §1, with “shFHL1-1” for “shNC”; format: functional, organism-based; settings: time 24.0 day

CC[C@]12C=CCN3CC[C@]4(C(=C(C(=O)OC)C1)Nc1ccccc14)[C@@H]32 [TABERSONINE]
CI [1]: <1 | Activity [2]: Active | Activity [3]: Active | inhibition [4]: Active | Activity [5]: Active | inhibition [6]: Active | Activity [7]: Active | Activity [8]: Dose-Dependent Effect | Activity [9]: inactive | Activity [10]: Active | inhibition [11]: inactive | inhibition [12]: inactive | inhibition [13]: inactive | inhibition [14]: inactive | inhibition [15]: inactive | inhibition [16]: inactive | inhibition [17]: inactive | Activity [18]: inactive | Activity [19]: inactive | Activity [20]: inactive | Activity [21]: inactive | Activity [22]: inactive | Activity [23]: inactive | Activity [24]: inactive | Activity [25]: Active | Activity [26]: Active | Activity [27]: Active | Activity [28]: Active | Activity [29]: inactive | Activity [30]: Active | Activity [31]: Active | Activity [32]: inactive
